Reference: ChEMBL document CHEMBL1201862, “PubChem BioAssay data set” (2004)
“And” between values parts separate entries of the source, which are not always exact repeats. Equal entries are not always repeated. The source made the active and inactive calls.

Tests used:
Cytochrome P450 1A2 = biological target: T1, Cytochrome P450 1A2 (Homo sapiens, UniProt P05177);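 also: PubChem cytochrome P450 panel assay, CYP1A2 panel member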
T1 sequence (P05177 whole entry): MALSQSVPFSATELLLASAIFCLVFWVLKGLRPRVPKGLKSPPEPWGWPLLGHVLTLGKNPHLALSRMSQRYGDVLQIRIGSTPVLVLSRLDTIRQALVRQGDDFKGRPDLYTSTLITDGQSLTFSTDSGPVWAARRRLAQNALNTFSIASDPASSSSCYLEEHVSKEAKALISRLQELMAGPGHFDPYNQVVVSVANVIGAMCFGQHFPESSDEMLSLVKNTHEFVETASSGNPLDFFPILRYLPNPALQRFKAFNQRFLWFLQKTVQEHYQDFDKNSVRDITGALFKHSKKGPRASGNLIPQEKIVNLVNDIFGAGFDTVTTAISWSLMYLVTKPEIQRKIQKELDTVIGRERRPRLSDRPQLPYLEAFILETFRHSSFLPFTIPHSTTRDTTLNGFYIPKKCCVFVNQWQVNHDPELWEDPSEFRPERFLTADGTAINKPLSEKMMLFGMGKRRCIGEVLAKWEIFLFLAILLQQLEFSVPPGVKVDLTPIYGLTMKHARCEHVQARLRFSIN

[1] = biological target: T2, Rac GTPase-activating protein 1 (Homo sapiens, UniProt Q9H0H5); test: MgcRacGAP GTPase-activating activity inhibitors, confirmation, biochemical, ADP Hunter fluorescence, primary and confirmatory (AID 624330); type: functional
T2 sequence (Q9H0H5 whole entry): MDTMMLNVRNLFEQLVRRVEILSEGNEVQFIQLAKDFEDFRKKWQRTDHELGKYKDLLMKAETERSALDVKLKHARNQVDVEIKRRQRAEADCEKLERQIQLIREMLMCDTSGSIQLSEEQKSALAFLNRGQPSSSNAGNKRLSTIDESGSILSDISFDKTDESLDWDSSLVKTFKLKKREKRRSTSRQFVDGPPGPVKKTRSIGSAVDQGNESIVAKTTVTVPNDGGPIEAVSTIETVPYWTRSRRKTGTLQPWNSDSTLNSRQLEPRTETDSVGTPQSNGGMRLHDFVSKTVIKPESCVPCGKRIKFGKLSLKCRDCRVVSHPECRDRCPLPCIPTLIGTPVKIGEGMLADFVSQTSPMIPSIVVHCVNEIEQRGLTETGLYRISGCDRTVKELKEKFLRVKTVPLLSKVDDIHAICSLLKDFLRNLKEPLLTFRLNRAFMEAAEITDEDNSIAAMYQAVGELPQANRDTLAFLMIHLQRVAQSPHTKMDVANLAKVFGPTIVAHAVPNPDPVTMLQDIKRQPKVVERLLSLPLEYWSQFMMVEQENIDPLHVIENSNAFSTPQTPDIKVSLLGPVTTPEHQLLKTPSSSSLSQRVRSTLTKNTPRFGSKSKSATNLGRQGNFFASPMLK

Cytochrome P450 3A4 = Cytochrome P450 3A4 (Homo sapiens, UniProt P08684);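 also: CYP3A4 tested as one member of a cytochrome P450 panel screen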
Cytochrome P450 3A4, sequence (P08684 whole entry): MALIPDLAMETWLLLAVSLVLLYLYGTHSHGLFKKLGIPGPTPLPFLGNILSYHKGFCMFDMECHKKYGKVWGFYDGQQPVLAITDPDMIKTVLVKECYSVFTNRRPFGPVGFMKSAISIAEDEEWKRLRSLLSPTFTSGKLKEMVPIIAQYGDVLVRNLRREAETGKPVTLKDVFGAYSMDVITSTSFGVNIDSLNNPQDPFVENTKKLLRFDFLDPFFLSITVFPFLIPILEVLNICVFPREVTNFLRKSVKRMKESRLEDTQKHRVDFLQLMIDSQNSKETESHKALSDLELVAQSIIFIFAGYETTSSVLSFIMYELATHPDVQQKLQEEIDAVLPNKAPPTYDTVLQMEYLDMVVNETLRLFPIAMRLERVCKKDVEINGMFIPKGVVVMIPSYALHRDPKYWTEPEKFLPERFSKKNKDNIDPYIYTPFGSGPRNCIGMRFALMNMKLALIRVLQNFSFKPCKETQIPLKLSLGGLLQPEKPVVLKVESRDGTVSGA

Cytochrome P450 2C19 = Cytochrome P450 2C19 (Homo sapiens, UniProt P33261); test: Cytochrome panel assay with activity outcomes. Panel member name: p450-cyp2c19 Compounds with AC50 equal or less than 10 uM are considered active; type: functional
Cytochrome P450 2C19, sequence (P33261 whole entry): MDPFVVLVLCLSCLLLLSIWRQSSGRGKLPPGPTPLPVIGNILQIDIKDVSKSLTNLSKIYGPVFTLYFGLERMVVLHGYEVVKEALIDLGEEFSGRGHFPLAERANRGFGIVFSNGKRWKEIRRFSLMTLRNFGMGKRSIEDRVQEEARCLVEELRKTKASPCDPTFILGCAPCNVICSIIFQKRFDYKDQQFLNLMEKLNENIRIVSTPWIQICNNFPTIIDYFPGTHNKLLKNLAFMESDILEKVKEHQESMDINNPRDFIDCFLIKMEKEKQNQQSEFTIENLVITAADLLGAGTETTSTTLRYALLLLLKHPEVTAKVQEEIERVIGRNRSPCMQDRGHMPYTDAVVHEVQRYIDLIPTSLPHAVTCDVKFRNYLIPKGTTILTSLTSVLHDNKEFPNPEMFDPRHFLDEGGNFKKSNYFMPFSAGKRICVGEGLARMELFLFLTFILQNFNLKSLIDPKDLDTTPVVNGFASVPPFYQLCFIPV

Streptokinase A = biological target: T3, Streptokinase A (Streptococcus pyogenes serotype M1, UniProt P10520); test: S. pyogenes streptokinase expression inhibitors, potency, dose response, plasminogen activation absorbance, OD405 (AID 1914); type: functional, Streptococcus pyogenes M1 GAS;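 also: secreted streptokinase activity via plasminogen activation per viability signal from cell pellet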
T3 sequence (P10520 whole entry): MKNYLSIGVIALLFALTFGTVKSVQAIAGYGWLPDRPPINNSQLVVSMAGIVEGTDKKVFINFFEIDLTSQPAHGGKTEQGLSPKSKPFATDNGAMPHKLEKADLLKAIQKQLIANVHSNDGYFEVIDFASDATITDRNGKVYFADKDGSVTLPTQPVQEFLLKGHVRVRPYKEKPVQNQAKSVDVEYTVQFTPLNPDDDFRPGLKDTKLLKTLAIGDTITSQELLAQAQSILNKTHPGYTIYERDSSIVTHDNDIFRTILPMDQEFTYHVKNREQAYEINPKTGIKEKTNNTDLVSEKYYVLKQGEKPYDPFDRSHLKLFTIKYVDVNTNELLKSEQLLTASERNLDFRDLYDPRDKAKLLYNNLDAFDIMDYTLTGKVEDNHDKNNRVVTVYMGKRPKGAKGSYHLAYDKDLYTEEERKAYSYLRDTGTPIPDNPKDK

[2] = test system: Streptococcus sp. 'group A'; test: growth inhibition of control SK(-) GAS strain, dose response, counter-screen for streptokinase expression inhibitor project, luminescence, kanamycin, BacTiterGlo, confirmation (AID 1900); type: functional, organism-based
Streptococcus = test: Group A Streptococcus viability loss, dose response, counter-screen for streptokinase expression inhibitor project, luminescence, BacTiterGlo (AID 1915); type: functional, organism-based;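 also: potency for reduction of bacterial viability or growth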
Cytochrome P450 2C9 = Cytochrome P450 2C9 (Homo sapiens, UniProt P11712)
Cytochrome P450 2C9, sequence (P11712 whole entry): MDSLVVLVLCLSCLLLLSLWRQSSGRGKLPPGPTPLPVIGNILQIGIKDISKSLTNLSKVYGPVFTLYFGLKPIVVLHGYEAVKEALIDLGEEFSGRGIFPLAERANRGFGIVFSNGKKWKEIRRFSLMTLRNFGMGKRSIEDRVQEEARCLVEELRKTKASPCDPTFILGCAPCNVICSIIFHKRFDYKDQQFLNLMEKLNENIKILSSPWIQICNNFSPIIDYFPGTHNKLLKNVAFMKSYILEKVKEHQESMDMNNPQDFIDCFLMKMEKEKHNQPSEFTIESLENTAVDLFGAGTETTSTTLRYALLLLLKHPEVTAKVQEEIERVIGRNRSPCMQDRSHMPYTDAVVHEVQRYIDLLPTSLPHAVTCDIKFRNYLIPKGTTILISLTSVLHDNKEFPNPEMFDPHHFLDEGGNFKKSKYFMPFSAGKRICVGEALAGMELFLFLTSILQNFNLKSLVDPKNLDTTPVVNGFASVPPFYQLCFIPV

Cc1ccc2c(c1)/C(=N/OC(=O)c1ccc(F)cc1)CCS2
AC50 (Cytochrome P450 1A2): 0.501 µM (inconclusive)

O=C(O)c1c2c(nc3ccccc13)/C(=C/c1ccc(O)cc1)CCC2
IC50 [1]: 46.6 µM (active)

CCCC1(C(=O)OC)C=C2C(=C(C)C(=O)C2C)CN1 (stereo not drawn)
AC50 (Cytochrome P450 3A4): 39.8 µM (inconclusive)

CC(C)(C)C(=O)NC(c1ccc(Cl)cc1)[C@]1(C)C[C@H]1C1CCCCC1 (stereo partly drawn)
AC50 (Cytochrome P450 2C19; read-out: AC50): 7.94 µM (inconclusive)

O=c1c([N+](=O)[O-])cccn1Cc1ccc(F)cc1Cl
EC50 (Streptokinase A): > 150 µM (not active)
EC50 [2]: 3.27 µM (active)
EC50 (Streptococcus): 7.88 µM (active)

CCOc1cc(CNc2ccc(N3CCOCC3)cc2)cc(Br)c1OCC
IC50 [1]: 19.6 µM (active)

COc1ccc(C2=NOC(C(=O)Nc3ccc(C(C)=O)cc3)C2)cc1OC (stereo not drawn)
AC50 (Cytochrome P450 2C19; read-out: AC50): 22.4 µM (inconclusive)
AC50 (Cytochrome P450 1A2): 6.31 µM (inconclusive)
AC50 (Cytochrome P450 2C9): 11.2 µM (inconclusive)

N#C/C(=C(\O)C(=O)O)c1ccc(-c2cccc3ccccc23)cc1
AC50 (Cytochrome P450 2C19): inconclusive
AC50 (Cytochrome P450 2C9): 3.16 µM (inconclusive)

COc1cccc([C@H](O)Cn2cc(-c3cccc(CON=C(C)C)c3)nn2)c1
AC50 (Cytochrome P450 3A4): 3.98 µM (inconclusive)

O=S(=O)(c1cccc2cnccc12)N1CCNCC1
AC50 (Cytochrome P450 2C19; read-out: AC50): 10 µM (inconclusive)
AC50 (Cytochrome P450 1A2): 39.8 µM (inconclusive)

COc1ccccc1COCC(O)CNCC1(N2CCCCC2)CCCCC1 (stereo not drawn)
IC50 [1]: 121 µM (active)

O=[N+]([O-])c1cccc(/C=N/Nc2cc(Cl)nc(-c3ccccc3)n2)c1
AC50 (Cytochrome P450 3A4): 17.8 µM (inconclusive)

CCC(C(=O)NCCCN1CCCC1=O)n1c2ccccc2c2nc(=O)cc(C)n21 (stereo not drawn)
EC50 (Streptokinase A): > 150 µM (not active)
EC50 [2]: > 150 µM (not active)
EC50 (Streptococcus): > 150 µM (not active)

CNC[C@@H](SC)c1ccc(O)c(O)c1
AC50 (Cytochrome P450 1A2): 6.31 µM (inconclusive)

N#Cc1cccc(NC(=O)N2CCCC3(CCN(C(=O)c4ccco4)CC3)C2)c1
AC50 (Cytochrome P450 1A2): 15.8 µM (inconclusive)

O=C(Oc1ccccc1)N1CCC2(CC1)CN(Cc1ccncc1)C2
AC50 (Cytochrome P450 2C19; read-out: AC50): 20 µM (inconclusive)
AC50 (Cytochrome P450 3A4): 12.6 µM (inconclusive)
AC50 (Cytochrome P450 1A2): 10 µM (inconclusive)

O=C(Nc1ccc(F)cc1F)c1cccn1-c1ncc(C(F)(F)F)cc1Cl
AC50 (Cytochrome P450 3A4): 28.2 µM (inconclusive)
AC50 (Cytochrome P450 1A2): 14.1 µM (inconclusive)
AC50 (Cytochrome P450 2C9): 39.8 µM (inconclusive)

CCOC(=O)c1c(C)[nH]c(C(=O)OCC(=O)NC2CCS(=O)(=O)C2)c1C (stereo not drawn)
AC50 (Cytochrome P450 2C19): inconclusive
AC50 (Cytochrome P450 2C9): 31.6 µM (inconclusive)

CCCCc1ccc(-c2nc(NC(=O)C3C4CCC(O4)C3C(=O)O)sc2C)cc1 (stereo not drawn)
AC50 (Cytochrome P450 3A4): 14.1 µM (inconclusive)
AC50 (Cytochrome P450 2C9): 3.55 µM (inconclusive)

COc1ccc(NC(=O)Cn2nnc(C(=O)NCc3cccs3)c2N)cc1Cl
EC50 (Streptokinase A): > 150 µM (not active)
EC50 [2]: 67.2 µM (active)
EC50 (Streptococcus): > 150 µM (not active)

O=C(c1ccccc1)c1ccc2n1CC[C@H]2C(=O)O
AC50 (Cytochrome P450 1A2): 25.1 µM (inconclusive) and 15.8 µM (inconclusive)

Cn1c(C(=O)N2CCN(c3ccc([N+](=O)[O-])cc3)CC2)cc2c(O)nc3ccccc3c21
EC50 (Streptokinase A): > 150 µM (not active)
EC50 [2]: 5.33 µM (active)
EC50 (Streptococcus): > 150 µM (not active)

COc1cccc(Cn2c(=O)c(CCc3ccccc3)nc3cnc(OC)nc32)c1
AC50 (Cytochrome P450 1A2): 12.6 µM (inconclusive)

CCOc1ccc2c(c1)C(C)=CC(C)(C)N2 [E324]
AC50 (Cytochrome P450 3A4): 12.6 µM (inconclusive)

O=C(Nc1ccc(Br)cc1C(=O)O)c1ccc2c(c1)C(=O)N(Cc1ccccc1)C2=O
EC50 (Streptokinase A): 17.5 µM (inconclusive)
EC50 [2]: 0.589 µM (active)
EC50 (Streptococcus): 18.3 µM (active)

O=C1CSc2ccc(C(=O)NCCC3=CCCCC3)cc2N1
AC50 (Cytochrome P450 2C19; read-out: AC50): 7.94 µM (inconclusive)
AC50 (Cytochrome P450 3A4): 12.6 µM (inconclusive)

COc1cc(CN2CCN(c3ccccc3F)CC2)cc(OC)c1O
IC50 [1]: 143 µM (active)
